Reference: US9937151B2, “Carbapenem antibacterials with gram-negative activity” (priority 2010, dated 2018)
In brackets after ≈: the same amount, converted by molar mass.

Tested on: G(−) bacterial strains
Test: Dilution antimicrobial susceptibility tests (MIC, NCCLS agar dilution / broth dilution)
Format: cell-based, Gram-negative organisms
Details: unit assumed
Summary of the method: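 Agar dilution on Mueller-Hinton agar at 10^4 CFU/spot and broth dilution at 5×10^5 CFU/well, per NCCLS M7-A5. Streptococci tested on Mueller-Hinton agar with 5% sheep blood. MIC taken as minimum inhibitory concentration; ATCC control strains run alongside.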

[1] = strain #1 Acinetobacter calcoaceticus
[2] = strain #2 Acinetobacter baumannii, Cf-R, Ci-R
[3] = strain #3 Acinetobacter baumannii, Cf-R, Ci-R, Mp-I
[4] = strain #4 Acinetobacter baumannii, Cf-R, Imp-I, CBPase
[5] = strain #7 Enterobacter aerogenes
[6] = strain #8 Enterobacter cloacae, Cf-R, B+
[7] = strain #9 Enterobacter cloacae, Cf-R
[8] = strain #10 Escherichia coli, Ci-R
[9] = strain #11 Escherichia coli, Ci-R, AmpC
[10] = strain #15 Klebsiella pneumoniae
[11] = strain #16 Moraxella catarrhalis
[12] = strain #21 Providencia rettgeri
[13] = strain #22 Salmonella typhimurium
[14] = strain #25 Shigella dysenteriae
[15] = strain #28 Stenotrophomonas maltophilia
[16] = strain #29 Pseudomonas aeruginosa
[17] = strain #30 Pseudomonas aeruginosa
[18] = strain #31 Pseudomonas aeruginosa, Ofx-R
[19] = strain #32 Pseudomonas aeruginosa, Cf-R
[20] = strain #33 Pseudomonas aeruginosa, Ci-R
[21] = strain #34 Pseudomonas aeruginosa, Gen-R
[22] = strain #35 Pseudomonas aeruginosa, Ip-R
[23] = strain #36 Pseudomonas aeruginosa, Cf-R, Ci-R, Mp-R

| Structure (SMILES) | MIC [1] [µg/mL] | MIC [2] [µg/mL] | MIC [3] [µg/mL] | MIC [4] [µg/mL] | MIC (strain #5 Citrobacter diversus) [µg/mL] | MIC (strain #6 Citrobacter freundii) [µg/mL] | MIC [5] [µg/mL] | MIC [6] [µg/mL] | MIC [7] [µg/mL] | MIC [8] [µg/mL] | MIC [9] [µg/mL] | MIC (strain #12 Escherichia coli) [µg/mL] | MIC (strain #13 Escherichia coli) [µg/mL] | MIC (strain #14 Klebsiella oxytoca) [µg/mL] | MIC [10] [µg/mL] | MIC [11] [µg/mL] | MIC (strain #17 Morganella Morganii) [µg/mL] | MIC (strain #18 Morganella Morganii) [µg/mL] | MIC (strain #19 Proteus vulgaris) [µg/mL] | MIC (strain #20 Proteus mirabilis) [µg/mL] | other results |
| --- | --- | --- | --- | --- | --- | --- | --- | --- | --- | --- | --- | --- | --- | --- | --- | --- | --- | --- | --- | --- | --- |
| C[C@@H](O)C1C(=O)N2C(C(=O)O)=C(CN3CC[C@@H](N)C3)[C@H](C)C12 (some centres unmarked) [Compound 151] | 0.25 (≈ 0.808 µM) | 0.5 (≈ 1.62 µM) | 2 (≈ 6.46 µM) | 1 (≈ 3.23 µM) | 0.25 (≈ 0.808 µM) | 0.5 (≈ 1.62 µM) | 2 (≈ 6.46 µM) | 0.25 (≈ 0.808 µM) | 0.5 (≈ 1.62 µM) | 0.25 (≈ 0.808 µM) | 0.25 (≈ 0.808 µM) | 0.25 (≈ 0.808 µM) | 0.5 (≈ 1.62 µM) | 0.5 (≈ 1.62 µM) | 0.5 (≈ 1.62 µM) | ≤ 0.008 | 4 (≈ 12.9 µM) | 4 (≈ 12.9 µM) | 1 (≈ 3.23 µM) | 0.5 (≈ 1.62 µM) | MIC [12]: 2 µg/mL (≈ 6.46 µM); MIC [13]: 0.5 µg/mL (≈ 1.62 µM); MIC (strain #23 Serratia marcescens): 1 µg/mL (≈ 3.23 µM); MIC (strain #24 Serratia marcescens): 1 µg/mL (≈ 3.23 µM); MIC [14]: 0.5 µg/mL (≈ 1.62 µM); MIC (strain #26 Shigella sonnei): 0.5 µg/mL (≈ 1.62 µM); MIC (strain #27 Shigella flexneri): 0.25 µg/mL (≈ 0.808 µM); MIC [15]: 0.25 µg/mL (≈ 0.808 µM) |
| CC(=O)N[C@H]1CCN(CC2=C(C(=O)O)N3C(=O)C([C@@H](C)O)C3[C@H]2C)C1 (some centres unmarked) [Compound 32] | 2 (≈ 5.69 µM) | 2 (≈ 5.69 µM) | 4 (≈ 11.4 µM) | 2 (≈ 5.69 µM) | 1 (≈ 2.85 µM) | 1 (≈ 2.85 µM) | 4 (≈ 11.4 µM) | 1 (≈ 2.85 µM) | 2 (≈ 5.69 µM) | 1 (≈ 2.85 µM) | 0.5 (≈ 1.42 µM) | 1 (≈ 2.85 µM) | 1 (≈ 2.85 µM) | 2 (≈ 5.69 µM) | 2 (≈ 5.69 µM) | 0.016 (≈ 0.0455 µM) | 8 (≈ 22.8 µM) | 4 (≈ 11.4 µM) | 4 (≈ 11.4 µM) | 1 (≈ 2.85 µM) | MIC [12]: 4 µg/mL (≈ 11.4 µM); MIC [13]: 1 µg/mL (≈ 2.85 µM); MIC (strain #23 Serratia marcescens): 2 µg/mL (≈ 5.69 µM); MIC (strain #24 Serratia marcescens): 2 µg/mL (≈ 5.69 µM); MIC [14]: 1 µg/mL (≈ 2.85 µM); MIC (strain #26 Shigella sonnei): 1 µg/mL (≈ 2.85 µM); MIC (strain #27 Shigella flexneri): 0.5 µg/mL (≈ 1.42 µM); MIC [15]: 1 µg/mL (≈ 2.85 µM); MIC [16]: 16 µg/mL (≈ 45.5 µM); MIC [17]: 16 µg/mL (≈ 45.5 µM); MIC [18]: 4 µg/mL (≈ 11.4 µM); MIC [19]: 16 µg/mL (≈ 45.5 µM); MIC [20]: 16 µg/mL (≈ 45.5 µM); MIC [21]: 16 µg/mL (≈ 45.5 µM); MIC [22]: 32 µg/mL (≈ 91.1 µM); MIC [23]: > 32 µg/mL |
| CNC(=O)[C@H]1CCN(CC2=C(C(=O)O)N3C(=O)C([C@@H](C)O)C3[C@H]2C)C1 (some centres unmarked) [Compound 127] | 1 (≈ 2.85 µM) | 1 (≈ 2.85 µM) | 4 (≈ 11.4 µM) | 2 (≈ 5.69 µM) | 0.5 (≈ 1.42 µM) | 0.5 (≈ 1.42 µM) | 2 (≈ 5.69 µM) | 0.5 (≈ 1.42 µM) | 1 (≈ 2.85 µM) | 0.5 (≈ 1.42 µM) | 0.5 (≈ 1.42 µM) | 0.5 (≈ 1.42 µM) | 0.5 (≈ 1.42 µM) | 1 (≈ 2.85 µM) | 1 (≈ 2.85 µM) | ≤ 0.008 | 4 (≈ 11.4 µM) | 4 (≈ 11.4 µM) | 2 (≈ 5.69 µM) | 0.5 (≈ 1.42 µM) | MIC [12]: 2 µg/mL (≈ 5.69 µM); MIC [13]: 0.5 µg/mL (≈ 1.42 µM); MIC (strain #23 Serratia marcescens): 1 µg/mL (≈ 2.85 µM); MIC (strain #24 Serratia marcescens): 2 µg/mL (≈ 5.69 µM); MIC [14]: 1 µg/mL (≈ 2.85 µM); MIC (strain #26 Shigella sonnei): 0.5 µg/mL (≈ 1.42 µM); MIC (strain #27 Shigella flexneri): 0.5 µg/mL (≈ 1.42 µM); MIC [15]: 0.5 µg/mL (≈ 1.42 µM); MIC [16]: 8 µg/mL (≈ 22.8 µM); MIC [17]: 8 µg/mL (≈ 22.8 µM); MIC [18]: 2 µg/mL (≈ 5.69 µM); MIC [19]: 8 µg/mL (≈ 22.8 µM); MIC [20]: 8 µg/mL (≈ 22.8 µM); MIC [21]: 8 µg/mL (≈ 22.8 µM); MIC [22]: 16 µg/mL (≈ 45.5 µM); MIC [23]: > 32 µg/mL |
| C[C@@H](O)C1C(=O)N2C(C(=O)O)=C(CN3CC[C@H](NC(=O)CNS(N)(=O)=O)C3)[C@H](C)C12 (some centres unmarked) [Compound 163] | 2 (≈ 4.49 µM) | 4 (≈ 8.98 µM) | 8 (≈ 18 µM) | 16 (≈ 35.9 µM) | 0.5 (≈ 1.12 µM) | 1 (≈ 2.24 µM) | 2 (≈ 4.49 µM) | 0.5 (≈ 1.12 µM) | 1 (≈ 2.24 µM) | 0.5 (≈ 1.12 µM) | 0.5 (≈ 1.12 µM) | 0.5 (≈ 1.12 µM) | 0.5 (≈ 1.12 µM) | 1 (≈ 2.24 µM) | 1 (≈ 2.24 µM) | ≤ 0.008 | 8 (≈ 18 µM) | 8 (≈ 18 µM) | 4 (≈ 8.98 µM) | 0.5 (≈ 1.12 µM) | MIC [12]: 1 µg/mL (≈ 2.24 µM); MIC [13]: 0.5 µg/mL (≈ 1.12 µM); MIC (strain #23 Serratia marcescens): 2 µg/mL (≈ 4.49 µM); MIC (strain #24 Serratia marcescens): 2 µg/mL (≈ 4.49 µM); MIC [14]: 1 µg/mL (≈ 2.24 µM); MIC (strain #26 Shigella sonnei): 0.5 µg/mL (≈ 1.12 µM); MIC (strain #27 Shigella flexneri): 0.5 µg/mL (≈ 1.12 µM); MIC [15]: 1 µg/mL (≈ 2.24 µM) |
